For test [1], the target named is EGFRΔ19del/T790M/C797S (Homo sapiens, UniProt P00533, T790M/C797S, form not given). The test is described as follows: EGFR Δ19del/T790M/C797S kinase test (mobility variation analysis, Caliper EZ Reader). The conditions noted are these: kinase enzymatic activity, Table 1. It is filed as biochemical. The essentials: (§1)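 Kinase pre-incubated with compound 10 minutes at room temperature, then ATP plus peptide substrate added; substrate conversion read by mobility shift after stop solution. Percent inhibition normalized to no-compound and no-enzyme controls; IC50 from variable-slope log(inhibitor) fit.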

Test [2] has as its target EGFR WT (Homo sapiens, UniProt P00533). Nature of the test: EGFR WT kinase test (mobility variation analysis, Caliper EZ Reader). It is filed as biochemical. The conditions noted are these: kinase enzymatic activity, Table 1. The essentials: as §1
The target in test [3] is IGF1R (Homo sapiens, UniProt P08069). The test is described as follows: IGF1R kinase test (mobility variation analysis, Caliper EZ Reader). It is filed as biochemical. Conditions: kinase enzymatic activity, Table 1; read-out: EGFR IGF1R IC50. In outline:
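Kinase preincubated 10 min at room temperature with compound (10-point 3-fold series, top 3000 nM), then ATP and substrate added and reacted at room temperature. Substrate conversion read by mobility-shift (Caliper EZ Reader); % inhibition vs no-enzyme and no-compound controls fitted to variable-slope curve for IC50.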

Test [4] addresses Ba/F3 cells with EGFR Δ19del/T790M/C797S mutation gene stably overexpressed (Homo sapiens, UniProt P00533, T790M/C797S, cells depend on it, form not given). The test is described as follows: Ba/F3-Δ19del/T790M/C797S cell proliferation assay (CellTiter Glo, 72 hours). It is filed as cell-based. The conditions noted are these: Table 2, read-out: EGFR Δ19del/T790M/C797S IC50. The essentials:
(§2)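 Ba/F3 cells stably overexpressing wild-type EGFR or EGFR Δ19del/T790M/C797S were seeded at 2000 cells/well and incubated 72 h with compound. Viability was read by CellTiter-Glo luminescence, and IC50 came from a four-parameter logistic fit of signal against log concentration.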
(In ATP-based viability assays light output follows the ATP content of the culture.)

Test [5] concerns the target Ba/F3-EGFR wild-type cell line (Homo sapiens, UniProt P00533). The test is described as follows: Ba/F3-EGFR wild-type cell proliferation assay (CellTiter Glo, 72 hours). It is filed as cell-based. The conditions noted are these: Table 2, read-out: EGFR WT IC50. The essentials:
as §2

Test [6] concerns A431. The test is described as follows: A431 cell proliferation assay (CellTiter Glo, 72 hours). The conditions noted are these: Homo sapiens, A-431, 72 h, cell proliferation, A431, 72 hours, Table 2; read-out: A431 IC50. It is filed as cell-based. The essentials: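 A431 cells (2000/well) exposed 72 h to compound at 1000 nM down to 0.2 nM in 3-fold steps, 0.1% DMSO (0.5% for some series). Viability by CellTiter-Glo luminescence; IC50 by four-parameter nonlinear regression.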

Some results are limits rather than exact numbers.

Sequence of Ba/F3-EGFR wild-type cell line (P00533 whole entry, change not shown): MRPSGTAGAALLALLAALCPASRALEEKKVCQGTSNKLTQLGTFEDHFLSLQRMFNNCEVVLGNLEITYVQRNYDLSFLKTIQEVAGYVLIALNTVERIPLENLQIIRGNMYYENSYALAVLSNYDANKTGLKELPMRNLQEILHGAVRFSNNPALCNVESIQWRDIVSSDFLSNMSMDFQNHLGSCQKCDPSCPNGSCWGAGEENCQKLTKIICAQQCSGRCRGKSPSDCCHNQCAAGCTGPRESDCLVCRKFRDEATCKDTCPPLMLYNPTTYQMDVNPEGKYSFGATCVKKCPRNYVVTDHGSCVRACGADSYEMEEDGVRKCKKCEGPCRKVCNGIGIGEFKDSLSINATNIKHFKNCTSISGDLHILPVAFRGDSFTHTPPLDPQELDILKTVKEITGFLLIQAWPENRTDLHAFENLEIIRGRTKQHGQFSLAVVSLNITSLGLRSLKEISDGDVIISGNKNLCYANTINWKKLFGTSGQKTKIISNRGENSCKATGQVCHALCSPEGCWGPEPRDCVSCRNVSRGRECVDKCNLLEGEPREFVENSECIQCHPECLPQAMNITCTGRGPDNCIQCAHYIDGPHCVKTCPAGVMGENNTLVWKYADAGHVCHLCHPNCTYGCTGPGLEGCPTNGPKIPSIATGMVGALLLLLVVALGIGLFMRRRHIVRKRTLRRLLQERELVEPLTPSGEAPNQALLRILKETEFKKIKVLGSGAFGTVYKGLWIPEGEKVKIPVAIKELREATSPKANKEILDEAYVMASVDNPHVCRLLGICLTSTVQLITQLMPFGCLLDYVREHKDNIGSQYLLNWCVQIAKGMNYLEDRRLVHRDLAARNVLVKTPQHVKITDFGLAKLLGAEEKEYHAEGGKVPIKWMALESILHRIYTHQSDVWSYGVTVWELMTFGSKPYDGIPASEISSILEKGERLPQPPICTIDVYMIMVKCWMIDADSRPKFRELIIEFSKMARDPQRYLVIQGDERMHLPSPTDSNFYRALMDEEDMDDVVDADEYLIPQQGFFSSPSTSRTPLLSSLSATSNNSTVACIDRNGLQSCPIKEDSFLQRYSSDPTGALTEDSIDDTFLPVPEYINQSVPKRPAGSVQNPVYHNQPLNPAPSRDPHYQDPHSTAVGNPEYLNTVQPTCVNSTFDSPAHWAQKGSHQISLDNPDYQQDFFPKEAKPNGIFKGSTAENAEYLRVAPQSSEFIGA
Sequence of IGF1R (P08069 31-1367, species assumed): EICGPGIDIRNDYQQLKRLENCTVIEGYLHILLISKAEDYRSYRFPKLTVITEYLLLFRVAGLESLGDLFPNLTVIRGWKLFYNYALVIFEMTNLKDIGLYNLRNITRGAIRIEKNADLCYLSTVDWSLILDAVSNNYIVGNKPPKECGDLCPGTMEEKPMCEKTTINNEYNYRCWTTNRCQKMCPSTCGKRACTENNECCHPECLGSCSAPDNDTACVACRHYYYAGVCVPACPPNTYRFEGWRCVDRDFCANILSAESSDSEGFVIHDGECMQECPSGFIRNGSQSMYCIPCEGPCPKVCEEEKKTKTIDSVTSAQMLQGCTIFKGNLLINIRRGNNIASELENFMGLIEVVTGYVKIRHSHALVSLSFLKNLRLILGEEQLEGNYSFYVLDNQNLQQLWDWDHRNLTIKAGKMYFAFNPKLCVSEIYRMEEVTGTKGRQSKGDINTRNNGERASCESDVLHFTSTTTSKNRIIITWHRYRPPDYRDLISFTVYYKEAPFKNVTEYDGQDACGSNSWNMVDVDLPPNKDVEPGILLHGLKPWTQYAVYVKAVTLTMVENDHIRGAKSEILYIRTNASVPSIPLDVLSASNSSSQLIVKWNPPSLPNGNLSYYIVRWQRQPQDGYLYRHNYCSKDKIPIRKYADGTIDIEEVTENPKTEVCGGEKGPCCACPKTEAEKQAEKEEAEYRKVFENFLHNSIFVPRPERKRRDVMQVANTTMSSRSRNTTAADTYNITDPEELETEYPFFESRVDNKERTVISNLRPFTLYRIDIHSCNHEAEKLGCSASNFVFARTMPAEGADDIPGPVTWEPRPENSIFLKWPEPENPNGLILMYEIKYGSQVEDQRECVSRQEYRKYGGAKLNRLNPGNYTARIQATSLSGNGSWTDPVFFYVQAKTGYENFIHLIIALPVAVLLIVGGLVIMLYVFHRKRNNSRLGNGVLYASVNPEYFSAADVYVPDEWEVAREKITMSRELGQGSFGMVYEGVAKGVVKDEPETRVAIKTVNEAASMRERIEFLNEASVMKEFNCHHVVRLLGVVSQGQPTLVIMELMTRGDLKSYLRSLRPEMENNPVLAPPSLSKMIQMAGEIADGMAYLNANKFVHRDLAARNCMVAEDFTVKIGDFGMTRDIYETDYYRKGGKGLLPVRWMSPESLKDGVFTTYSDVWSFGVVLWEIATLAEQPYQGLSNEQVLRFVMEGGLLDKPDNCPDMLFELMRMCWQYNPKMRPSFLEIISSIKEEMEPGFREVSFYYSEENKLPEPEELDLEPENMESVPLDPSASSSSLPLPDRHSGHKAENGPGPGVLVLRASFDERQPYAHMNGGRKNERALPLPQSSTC
Sequence of Ba/F3 cells with EGFR Δ19del/T790M/C797S mutation gene stably overexpressed (P00533 with tags, fused parts or gaps DEL746-750/T790M/C797S, form open): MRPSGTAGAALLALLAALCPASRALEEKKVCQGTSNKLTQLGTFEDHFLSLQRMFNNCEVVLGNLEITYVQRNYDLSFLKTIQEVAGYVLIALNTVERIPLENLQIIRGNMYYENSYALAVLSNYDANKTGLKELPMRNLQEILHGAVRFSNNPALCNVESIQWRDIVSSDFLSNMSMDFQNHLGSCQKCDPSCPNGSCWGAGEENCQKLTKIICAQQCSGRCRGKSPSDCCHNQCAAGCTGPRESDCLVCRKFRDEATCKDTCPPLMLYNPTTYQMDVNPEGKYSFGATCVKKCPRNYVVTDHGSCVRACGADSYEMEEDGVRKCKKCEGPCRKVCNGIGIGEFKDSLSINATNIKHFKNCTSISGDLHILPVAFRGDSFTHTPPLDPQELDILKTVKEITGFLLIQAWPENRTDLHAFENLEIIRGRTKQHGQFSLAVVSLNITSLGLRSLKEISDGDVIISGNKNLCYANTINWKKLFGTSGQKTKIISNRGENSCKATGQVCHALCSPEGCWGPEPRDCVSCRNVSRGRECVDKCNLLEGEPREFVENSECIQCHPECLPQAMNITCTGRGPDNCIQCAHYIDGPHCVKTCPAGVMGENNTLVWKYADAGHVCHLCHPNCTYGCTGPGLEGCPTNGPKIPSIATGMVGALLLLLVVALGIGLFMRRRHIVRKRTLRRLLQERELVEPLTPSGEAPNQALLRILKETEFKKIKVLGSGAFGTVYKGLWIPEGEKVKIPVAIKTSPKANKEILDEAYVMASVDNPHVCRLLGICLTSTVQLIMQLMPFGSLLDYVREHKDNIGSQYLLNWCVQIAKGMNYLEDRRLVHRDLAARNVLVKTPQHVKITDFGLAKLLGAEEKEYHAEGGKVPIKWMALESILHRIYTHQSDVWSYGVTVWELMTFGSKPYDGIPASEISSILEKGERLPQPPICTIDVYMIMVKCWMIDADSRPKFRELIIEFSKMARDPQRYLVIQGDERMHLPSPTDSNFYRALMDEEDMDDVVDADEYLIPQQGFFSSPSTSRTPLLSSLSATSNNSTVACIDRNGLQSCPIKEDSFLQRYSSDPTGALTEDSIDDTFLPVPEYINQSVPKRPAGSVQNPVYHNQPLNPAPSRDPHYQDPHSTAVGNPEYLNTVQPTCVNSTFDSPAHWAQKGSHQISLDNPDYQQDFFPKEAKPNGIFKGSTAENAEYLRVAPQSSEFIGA
Sequence of EGFRΔ19del/T790M/C797S (P00533 with tags, fused parts or gaps DEL746-750/T790M/C797S, form open): as above

Broadly, the IC50 is the midpoint of a concentration-inhibition curve. On to `COc1cnn(-c2ccc(Nc3nc(Nc4cc(C)c(N5CCC(N6CCCCC6)CC5)cc4OC)ncc3Br)c(P(C)(C)=O)c2)c1` [Compound K-087], for which the 50% inhibitory concentration (IC50) in test [1] was 0.1 nM; in test [2], 17.2 nM; in test [3], 96.1 nM; in test [6], 4820 nM. In addition, the GI50 in test [4] was determined as 7.4 nM; in test [5] it was 245 nM.
Turning to `COc1cnn(-c2ccc(Nc3nc(Nc4cc(C)c(N5CCN(C6CCN(C)CC6)CC5)cc4OC)ncc3Br)c(P(C)(C)=O)c2)c1` [Compound K-088], the 50% inhibitory concentration (IC50) in test [1] is 0.3 nM; in test [2], 31 nM; in test [3] it was 170 nM; in test [6], more than 10000 nM. In addition, the GI50 stood at 14.6 nM in test [4] and 285 nM in test [5].
On to `COc1cnn(-c2ccc(Nc3nc(Nc4cc(C)c(N5CCN(C6CCCC6)CC5)cc4OC)ncc3Br)c(P(C)(C)=O)c2)c1` [Compound K-089, (2-((5-Bromo-2-((4-(4-cyclopentylpiperazin-1-yl)-2-methoxy-5-methylphenyl)amino)pyrimidin-4-yl)amino)-5-(4-methoxy-1H-pyrazol-1-yl)phenyl)dimethylphosphine oxide], for which the concentration for half-maximal inhibition (IC50) is 0.3 nM in test [1], 169 nM in test [2], 259 nM in test [3] and more than 10000 nM in test [6]. For the same compound, the GI50 in test [4] is 9.5 nM; in test [5], 400 nM.
For `CCc1cc(Nc2ncc(Br)c(Nc3ccc(-n4cc(COC)cn4)cc3P(C)(C)=O)n2)c(OC)cc1N1CCC(N2CCN(C)CC2)CC1` [Compound K-090], the 50% inhibitory concentration (IC50) in test [1] was 0.3 nM; in test [2], 28.2 nM; in test [3], 202 nM; in test [6], 2320 nM. Moreover, the GI50 amounted to 18.4 nM in test [4] and 467 nM in test [5].
As for `CCc1cc(Nc2ncc(Cl)c(Nc3ccc(-c4cnn5c4CCCC5)cc3P(C)(C)=O)n2)c(OC)cc1N1CCC(N2CCN(C)CC2)CC1` [Compound K-104, (2-((5-Chloro-2-((5-ethyl-2-methoxy-4-(4-(4-methylpiperazin-1-yl)piperidin-1-yl)phenyl)amino)pyrimidin-4-yl)amino)-5-(4,5,6,7-tetrahydropyrazolo[1,5-a]pyridin-3-yl)phenyl)dimethylphosphine oxide], the 50% inhibitory concentration (IC50) in test [1] stood at 0.4 nM; in test [2] it was 23.1 nM; in test [3], 378 nM; in test [6] it was 3250 nM. The GI50 in test [4] was determined as 64.2 nM; in test [5] it was 204 nM.

(Values after patent publication US20220402948A1, “EGFR INHIBITOR, COMPOSITION AND PREPARATION METHOD THEREFOR” (BETTA PHARMACEUTICALS CO., LTD., priority 2019, published 2022).)
